Patent US20230017786A1, “DEXTR[…] A DISEASE-MODIFYING TREATMENT FOR NEUROPSYCHIATRIC DISORDERS AND DISEASES” (priority 2020, published 2023)

Key:
[1] = biological target: T1, recombinant human NMDAR GluN1 plus GluN2C (Homo sapiens, UniProt Q05586+Q14957); assay: FLIPR calcium assay, gentamicin as PAM (Example 5 Part I), GluN2C cell line; format: cell-based; settings: 10 μM test item; dextromethadone in presence and absence of 10 μM gentamicin
T1 construct: expressed in transfected cells; host or cells: CHO
Source text: A FLIPR calcium assay was used to profile gentamicin using stable cell lines expressing diheteromeric recombinant human NMDARs, containing GluN1 plus one amongst GluN2A, GluN2B, GluN2C or GluN2D subunit.

[2] = biological target: T2, human NMDA receptor GluN1-GluN2A (Homo sapiens, UniProt Q05586+Q12879); assay: FLIPR calcium assay, quinolinic acid, gentamicin, dextromethadone (Example 5 Part II), GluN1-GluN2A-CHO; format: cell-based; parameters: calcium response (mean±SEM): unit not given here; settings: 10 μM glycine; for calcium response (mean±SEM): GluN2A, n=42
T2 construct: expressed in transfected cells; host or cells: CHO
Method in brief: (§1)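 CHO lines expressing diheteromeric human GluN1/GluN2A–D, loaded 1 h with Fluo-4, tested by FLIPR for intracellular calcium with 10 μM glycine present. Quinolinic acid, gentamicin and test items were run as concentration-response curves, alone or combined. EC50 obtained from a four-parameter Hill fit.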

[3] = biological target: T3, human NMDA receptor GluN1-GluN2D (Homo sapiens, UniProt O15399+Q05586); assay: FLIPR calcium assay, quinolinic acid, gentamicin, dextromethadone (Example 5 Part II), GluN1-GluN2D-CHO; format: cell-based; settings: 10 μM glycine; for calcium response (mean±SEM): GluN2D, n=42
T3 construct: expressed in transfected cells; host or cells: CHO
Method in brief: as §1

GluN1/GluN2D receptor = biological target: T4, GluN1/GluN2D receptor (Homo sapiens, UniProt O15399+Q05586); assay: Automated patch clamp (QPatch HTX) in presence of 1 mM extracellular magnesium; format: cell-based; settings: 10 μM dextromethadone, 1 mM Mg2+
T4 construct: expressed in transfected cells; host or cells: CHO
Description: Automated patch clamp experiments were performed in QPatch HTX (Sophion Bioscience A/S, Ballerup, Denmark) using CHO cells stably expressing recombinant diheteromeric human NMDAR. Cells were clamped at −80 mV holding potential in presence of 1 mM extracellular magnesium. Voltage protocol included a depolarizing 2 s step pulse to +60 mV, to check quality of the seal and cell NMDAR expression level, followed by a 2 s ramp back to holding potential.

patients with MDD = assay: Phase 2 sub-analysis, MADRS and SDQ composite indexes and single functional items; format: in vivo, human
Source text: The present inventors selected items from the MADRS and SDQ scales and created Composite Indexes of cognitive and motivational functions: Cognitive composite index: [MADRS 6 (concentration difficulties), SDQ 16 (wakefulness), SDQ 22 (slowed down feeling, SDQ 35 (ability to focus), SDQ 36 (ability to remember), SDQ 37 (ability to find words), SDQ 38 (sharpness), SDQ 39 (ability to make decisions), SDQ 42 (ability to work)]; Motivation-energy composite index: [MADRS 7 (lassitude), SDQ 7 (motivation), SDQ 20 (energy)]; Mood composite index: [MADRS 1 (reported sadness), SDQ 1, 2, 3 (mood)]; Sleep composite index: [MADRS 4 (reduced sleep), SDQ 13 (ability to fall asleep), SDQ 14 (ability to stay asleep in the middle of the night), SDQ 15 (ability to stay asleep around the time before waking up)]; The present inventors also separately analyzed two additional single functional items part of the SDQ. 1) Social function, single question (SDQ 41, social functioning); 2) sexual function, single question (SDQ 40, sexual functioning).
Analysis of Change from Baseline at different times after the onset of treatment: The likelihood-based method applied is the Mixed-Effect Model Repeated Measures (MMRM) model with fixed-effect terms for treatment, visit (Day 2, Day 4, Day 7, Day 14) and the interaction between treatment and visit. The LS means and the LS means difference (the difference between REL-1017 and Placebo in the LS means) are provided along with the p-value for testing the hypothesis of no difference and the Cohen's effect size (calculated based on the LS mean differences and the pooled standard deviations). The 25 mg and 50 mg dosages are considered separately and combined: 25 mg+50 mg, Combined Treatment Group (CTG).

5-HT2A receptor = 5-HT2A receptor (Homo sapiens, UniProt P28223); settings: agonist; Rickli et al., 2018; cited from earlier work
[4] = 0.04 μM L-Glu + 100 μM QA + 10 μM DXT
[5] = 0.04 μM L-Glu + 1000 μM QA + 10 μM DXT
[6] = 0.2 μM L-Glu + 100 μM QA + 10 μM DXT
[7] = 0.2 μM L-Glu + 1000 μM QA + 10 μM DXT
[8] = 1000 μM QA + 10 μg/ml GENT + 10 μM DXT
[9] = Table 41: 0.04 μM L-Glu + 10 μM DXT
[10] = Table 43: 0.2 μM L-Glu + 10 μM DXT
[11] = 25 mg, day not given (first set)
[12] = 50 mg, day not given (first set)
[13] = CTG 25 mg+50 mg, day not given (first set)

T3 sequence (O15399 28-1336, other chains not shown): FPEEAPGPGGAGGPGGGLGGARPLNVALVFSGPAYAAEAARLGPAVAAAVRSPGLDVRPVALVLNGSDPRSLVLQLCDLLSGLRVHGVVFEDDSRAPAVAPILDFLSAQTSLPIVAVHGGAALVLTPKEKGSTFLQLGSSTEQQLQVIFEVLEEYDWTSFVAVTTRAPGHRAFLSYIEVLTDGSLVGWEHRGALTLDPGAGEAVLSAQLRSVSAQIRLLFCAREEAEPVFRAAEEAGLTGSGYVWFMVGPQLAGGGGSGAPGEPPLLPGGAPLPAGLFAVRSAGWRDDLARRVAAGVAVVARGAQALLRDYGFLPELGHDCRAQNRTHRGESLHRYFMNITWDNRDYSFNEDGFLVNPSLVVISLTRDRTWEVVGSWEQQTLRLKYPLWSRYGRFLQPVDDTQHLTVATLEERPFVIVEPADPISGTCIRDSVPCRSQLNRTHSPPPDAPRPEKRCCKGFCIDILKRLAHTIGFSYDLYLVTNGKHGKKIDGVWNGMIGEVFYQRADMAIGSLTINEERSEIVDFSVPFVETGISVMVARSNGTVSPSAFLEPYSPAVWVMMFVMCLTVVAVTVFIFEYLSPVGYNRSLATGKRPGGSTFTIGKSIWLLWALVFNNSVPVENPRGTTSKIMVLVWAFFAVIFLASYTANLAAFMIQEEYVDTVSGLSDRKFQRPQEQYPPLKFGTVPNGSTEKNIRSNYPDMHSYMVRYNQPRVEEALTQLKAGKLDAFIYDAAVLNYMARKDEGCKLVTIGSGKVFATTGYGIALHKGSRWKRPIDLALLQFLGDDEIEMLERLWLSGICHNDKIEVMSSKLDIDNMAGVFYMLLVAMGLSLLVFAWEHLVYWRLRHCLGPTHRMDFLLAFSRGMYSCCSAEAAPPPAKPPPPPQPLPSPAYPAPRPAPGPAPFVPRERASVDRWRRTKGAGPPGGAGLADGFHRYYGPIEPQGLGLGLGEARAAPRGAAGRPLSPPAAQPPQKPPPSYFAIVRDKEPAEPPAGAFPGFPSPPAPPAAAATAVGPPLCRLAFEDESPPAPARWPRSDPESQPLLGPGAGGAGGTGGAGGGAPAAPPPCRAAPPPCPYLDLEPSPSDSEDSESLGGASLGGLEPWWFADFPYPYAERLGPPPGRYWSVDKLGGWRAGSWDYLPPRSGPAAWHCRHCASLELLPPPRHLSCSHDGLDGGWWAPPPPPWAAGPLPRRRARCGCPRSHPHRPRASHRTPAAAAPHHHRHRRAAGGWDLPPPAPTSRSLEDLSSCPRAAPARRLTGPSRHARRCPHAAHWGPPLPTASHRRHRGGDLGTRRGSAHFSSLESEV
T2 sequence (Q12879 23-1464, other chains not shown): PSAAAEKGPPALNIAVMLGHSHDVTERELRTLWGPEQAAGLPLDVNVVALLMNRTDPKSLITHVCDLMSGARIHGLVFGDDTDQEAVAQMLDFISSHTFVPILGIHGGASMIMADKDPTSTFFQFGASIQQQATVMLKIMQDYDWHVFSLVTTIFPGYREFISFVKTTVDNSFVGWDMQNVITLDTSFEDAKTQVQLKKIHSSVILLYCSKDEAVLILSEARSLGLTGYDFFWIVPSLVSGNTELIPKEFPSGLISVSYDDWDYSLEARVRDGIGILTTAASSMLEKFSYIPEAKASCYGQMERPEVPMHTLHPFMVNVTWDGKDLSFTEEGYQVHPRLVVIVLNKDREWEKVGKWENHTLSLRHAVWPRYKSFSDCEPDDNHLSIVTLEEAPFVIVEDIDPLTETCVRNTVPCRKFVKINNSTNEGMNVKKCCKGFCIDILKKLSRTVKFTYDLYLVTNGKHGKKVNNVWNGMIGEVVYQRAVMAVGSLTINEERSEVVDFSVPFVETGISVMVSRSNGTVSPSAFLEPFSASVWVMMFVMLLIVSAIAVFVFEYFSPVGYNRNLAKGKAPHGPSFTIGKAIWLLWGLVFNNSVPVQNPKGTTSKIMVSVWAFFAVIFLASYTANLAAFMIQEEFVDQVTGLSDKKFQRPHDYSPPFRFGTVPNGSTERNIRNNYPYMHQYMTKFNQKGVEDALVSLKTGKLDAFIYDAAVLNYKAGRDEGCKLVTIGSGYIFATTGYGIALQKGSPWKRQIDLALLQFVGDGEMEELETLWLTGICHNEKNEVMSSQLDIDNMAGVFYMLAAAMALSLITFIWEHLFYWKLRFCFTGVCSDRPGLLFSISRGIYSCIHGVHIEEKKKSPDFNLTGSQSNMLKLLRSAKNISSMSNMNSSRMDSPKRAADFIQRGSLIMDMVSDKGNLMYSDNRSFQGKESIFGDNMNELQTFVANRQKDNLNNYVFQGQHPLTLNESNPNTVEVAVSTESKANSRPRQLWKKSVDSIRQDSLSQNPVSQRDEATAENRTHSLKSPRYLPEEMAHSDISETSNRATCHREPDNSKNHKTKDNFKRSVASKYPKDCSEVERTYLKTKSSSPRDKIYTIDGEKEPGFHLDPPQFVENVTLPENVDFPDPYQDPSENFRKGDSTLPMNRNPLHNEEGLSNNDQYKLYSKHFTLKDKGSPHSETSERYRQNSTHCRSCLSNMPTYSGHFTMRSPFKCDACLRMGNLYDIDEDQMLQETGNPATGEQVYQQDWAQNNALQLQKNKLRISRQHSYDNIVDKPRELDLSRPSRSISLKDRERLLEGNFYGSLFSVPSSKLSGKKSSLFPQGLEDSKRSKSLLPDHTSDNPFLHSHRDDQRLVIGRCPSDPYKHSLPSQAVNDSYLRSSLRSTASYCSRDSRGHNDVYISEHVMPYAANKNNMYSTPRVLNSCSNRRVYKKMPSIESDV
T1 sequence (Q14957 20-1233, other chains not shown): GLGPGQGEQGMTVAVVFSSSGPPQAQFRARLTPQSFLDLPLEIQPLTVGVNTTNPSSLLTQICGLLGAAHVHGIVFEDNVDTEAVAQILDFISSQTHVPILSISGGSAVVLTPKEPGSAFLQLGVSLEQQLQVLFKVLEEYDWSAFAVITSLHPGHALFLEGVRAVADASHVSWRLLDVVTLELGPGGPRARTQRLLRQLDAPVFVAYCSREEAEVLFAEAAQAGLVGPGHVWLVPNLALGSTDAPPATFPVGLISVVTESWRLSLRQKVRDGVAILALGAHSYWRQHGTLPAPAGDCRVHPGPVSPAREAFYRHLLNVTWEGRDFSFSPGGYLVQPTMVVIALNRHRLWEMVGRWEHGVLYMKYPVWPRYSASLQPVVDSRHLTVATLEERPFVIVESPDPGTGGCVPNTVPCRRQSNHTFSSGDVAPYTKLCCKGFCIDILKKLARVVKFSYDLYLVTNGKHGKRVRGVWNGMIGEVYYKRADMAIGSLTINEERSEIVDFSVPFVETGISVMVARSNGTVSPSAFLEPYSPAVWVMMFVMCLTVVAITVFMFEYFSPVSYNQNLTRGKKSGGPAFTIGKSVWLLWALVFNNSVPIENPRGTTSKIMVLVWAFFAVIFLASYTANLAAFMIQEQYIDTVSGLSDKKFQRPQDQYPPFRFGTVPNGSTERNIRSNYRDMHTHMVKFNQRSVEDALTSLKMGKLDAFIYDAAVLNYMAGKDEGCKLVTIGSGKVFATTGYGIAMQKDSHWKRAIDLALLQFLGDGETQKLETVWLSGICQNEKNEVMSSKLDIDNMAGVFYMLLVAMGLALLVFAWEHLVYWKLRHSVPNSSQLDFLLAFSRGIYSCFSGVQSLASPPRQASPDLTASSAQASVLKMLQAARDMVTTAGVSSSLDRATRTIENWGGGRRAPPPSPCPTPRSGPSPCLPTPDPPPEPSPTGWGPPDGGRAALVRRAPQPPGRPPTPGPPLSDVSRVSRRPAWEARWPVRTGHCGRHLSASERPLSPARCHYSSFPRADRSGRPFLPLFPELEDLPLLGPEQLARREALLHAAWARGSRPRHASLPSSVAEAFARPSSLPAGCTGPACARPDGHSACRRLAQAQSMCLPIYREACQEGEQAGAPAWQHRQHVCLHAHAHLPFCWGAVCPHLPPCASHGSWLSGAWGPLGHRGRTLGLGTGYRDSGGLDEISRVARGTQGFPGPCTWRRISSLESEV
T4 sequence (O15399 28-1336, other chains not shown): as the sequence (O15399 28-1336, other chains not shown) above
Chain of 5-HT2A receptor (P28223 whole entry): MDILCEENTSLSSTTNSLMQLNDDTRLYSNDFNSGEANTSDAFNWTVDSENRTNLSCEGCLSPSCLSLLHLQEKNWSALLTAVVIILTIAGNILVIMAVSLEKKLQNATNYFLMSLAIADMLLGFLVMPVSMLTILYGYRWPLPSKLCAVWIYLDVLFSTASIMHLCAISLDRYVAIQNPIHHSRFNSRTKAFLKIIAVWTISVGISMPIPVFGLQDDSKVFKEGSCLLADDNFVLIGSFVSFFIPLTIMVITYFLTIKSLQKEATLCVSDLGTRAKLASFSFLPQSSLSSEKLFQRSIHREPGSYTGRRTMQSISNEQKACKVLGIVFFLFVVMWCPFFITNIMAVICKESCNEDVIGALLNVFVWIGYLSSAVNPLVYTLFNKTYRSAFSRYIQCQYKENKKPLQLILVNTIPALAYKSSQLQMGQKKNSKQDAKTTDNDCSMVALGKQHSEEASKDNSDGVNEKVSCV

CCC(=O)C(C[C@H](C)N(C)C)(c1ccccc1)c1ccccc1 [Dextromethadone, dextromethadone]
calcium entry induced by 0.04 μM L-glutamate [1]: significantly reduced | calcium entry induced by 0.2 μM L-glutamate [1]: significantly reduced | calcium entry induced by 10 μM L-glutamate [1]: significantly reduced | calcium response (mean±SEM) ([2]; 0.04 μM L-Glu + 10 μM DXT): 0.5 ± 0.2 | calcium response (mean±SEM) [2, 4]: 3.4 ± 0.2 | calcium response (mean±SEM) [2, 5]: 32 ± 0.7 | calcium response (mean±SEM) ([2]; 0.2 μM L-Glu + 10 μM DXT): 14 ± 0.4 | calcium response (mean±SEM) [2, 6]: 15 ± 0.5 | calcium response (mean±SEM) [2, 7]: 35 ± 1.0 | % effect on calcium entry, 100 QA + 10 DXT ([2]; 100 μM QA + 10 μM DXT): −0.2 ± 0.2% | calcium response (mean±SEM) ([2]; 1000 μM QA + 10 μM DXT): 34 ± 0.6 | % effect on calcium entry, 1000 QA + 10 DXT ([2]; 1000 μM QA + 10 μM DXT): 34 ± 0.6% | calcium response (mean±SEM) [2, 8]: 34 ± 0.6 | calcium response (mean±SEM) [2, 9]: 0.5 ± 0.2 | calcium response (mean±SEM) [2, 10]: 14 ± 0.4 | calcium response (mean±SEM) ([3]; 0.04 μM L-Glu + 10 μM DXT): 3.5 ± 0.2 | calcium response (mean±SEM) [3, 4]: 7.1 ± 0.4 | calcium response (mean±SEM) [3, 5]: 33 ± 1.6 | calcium response (mean±SEM) ([3]; 0.2 μM L-Glu + 10 μM DXT): 71 ± 2.3 | calcium response (mean±SEM) [3, 6]: 69 ± 1.4 | calcium response (mean±SEM) [3, 7]: 43 ± 1.1 | % effect on calcium entry, 100 QA + 10 DXT ([3]; 100 μM QA + 10 μM DXT): −2.4 ± 0.2% | calcium response (mean±SEM) ([3]; 1000 μM QA + 10 μM DXT): 32 ± 0.9 | % effect on calcium entry, 1000 QA + 10 DXT ([3]; 1000 μM QA + 10 μM DXT): 32 ± 0.9% | calcium response (mean±SEM) [3, 8]: 36 ± 0.8 | calcium response (mean±SEM) [3, 9]: 3.5 ± 0.2 | calcium response (mean±SEM) [3, 10]: 71 ± 2.3 | residual current, % of pre-application level (GluN1/GluN2D receptor; 1 μM L-glutamate, −80 mV, control cells 102.5±[…]): 62.5±4.1% | 10 μM or 1 μM L-glutamate elicited current (GluN1/GluN2D receptor; −30 mV to −80 mV): significantly reduced | Social function (SDQ 41), LS mean difference vs placebo (patients with MDD; 25 mg, Day 7): −1.07 | Social function (SDQ 41), effect size (patients with MDD; 25 mg, Day 7): 0.65 | Sexual function (SDQ 40), LS mean difference vs placebo (patients with MDD; 25 mg, Day 14): −1.32 | Sexual function (SDQ 40), effect size (patients with MDD; 25 mg, Day 14): 0.93 | Social function (SDQ 41), LS mean difference vs placebo (patients with MDD; 25 mg, Day 14): −1,246 | Social function (SDQ 41), effect size (patients with MDD; 25 mg, Day 14): 0.99 | Sexual function (SDQ 40), LS mean difference vs placebo (patients with MDD; [11]): −0.66 | Sexual function (SDQ 40), effect size (patients with MDD; [11]): 0.48 | Social function (SDQ 41), LS mean difference vs placebo (patients with MDD; 50 mg, Day 7): −1 | Social function (SDQ 41), effect size (patients with MDD; 50 mg, Day 7): 0.57 | Sexual function (SDQ 40), LS mean difference vs placebo (patients with MDD; 50 mg, Day 14): −0.4 | Sexual function (SDQ 40), effect size (patients with MDD; 50 mg, Day 14): 0.29 | Social function (SDQ 41), effect size (patients with MDD; 50 mg, Day 14): 0.98 | Sexual function (SDQ 40), LS mean difference vs placebo (patients with MDD; [12]): −0.28 | Sexual function (SDQ 40), effect size (patients with MDD; [12]): 0.19 | Social function (SDQ 41), effect size (patients with MDD; CTG 25 mg+50 mg, Day 7): 0.61 | Sexual function (SDQ 40), LS mean difference vs placebo (patients with MDD; CTG 25 mg+50 mg, Day 14): −0.86 | Sexual function (SDQ 40), effect size (patients with MDD; CTG 25 mg+50 mg, Day 14): 0.59 | Social function (SDQ 41), LS mean difference vs placebo (patients with MDD; CTG 25 mg+50 mg, Day 14): −1.19 | Social function (SDQ 41), effect size (patients with MDD; CTG 25 mg+50 mg, Day 14): 0.99 | Sexual function (SDQ 40), LS mean difference vs placebo (patients with MDD; [13]): −0.46 | Sexual function (SDQ 40), effect size (patients with MDD; [13]): 0.32 | Ki (5-HT2A receptor): 520 nM
